Literature values in patent US20260337190A1, “CRYSTAL FORM OF PYRIDINOPYRIMIDINONE COMPOUND, ACID SALT THEREOF, CRYSTAL FORM OF ACID SALT THEREOF, AND USE” (Wuhan Humanwell Innovative Drug Research and Development …, priority 2022, published 2026).

Tested on: mutated KRAS and wild-type KRAS in tumor cells
Settings: cited from earlier work

CNCc1ccccc1-c1csc([C@@H](C)Nc2nc(C)nc3cc(OC)c(OC)cc23)c1 [BAY-293]
reduction of activity of mutated and wild-type KRAS in tumor cells: can effectively reduce the activity of mutated KRAS and wild-type KRAS in tumor cells
